Measured values taken from ChEMBL document CHEMBL3751785, “Development and structural analysis of adenosine site binding tankyrase inhibitors” (Bioorg Med Chem Lett, 2016).

Target: Poly [ADP-ribose] polymerase 1 (Homo sapiens, UniProt P09874)
Assay: Inhibition of human ARTD1 by fluorescence analysis

Chain of Poly [ADP-ribose] polymerase 1 (P09874 whole entry): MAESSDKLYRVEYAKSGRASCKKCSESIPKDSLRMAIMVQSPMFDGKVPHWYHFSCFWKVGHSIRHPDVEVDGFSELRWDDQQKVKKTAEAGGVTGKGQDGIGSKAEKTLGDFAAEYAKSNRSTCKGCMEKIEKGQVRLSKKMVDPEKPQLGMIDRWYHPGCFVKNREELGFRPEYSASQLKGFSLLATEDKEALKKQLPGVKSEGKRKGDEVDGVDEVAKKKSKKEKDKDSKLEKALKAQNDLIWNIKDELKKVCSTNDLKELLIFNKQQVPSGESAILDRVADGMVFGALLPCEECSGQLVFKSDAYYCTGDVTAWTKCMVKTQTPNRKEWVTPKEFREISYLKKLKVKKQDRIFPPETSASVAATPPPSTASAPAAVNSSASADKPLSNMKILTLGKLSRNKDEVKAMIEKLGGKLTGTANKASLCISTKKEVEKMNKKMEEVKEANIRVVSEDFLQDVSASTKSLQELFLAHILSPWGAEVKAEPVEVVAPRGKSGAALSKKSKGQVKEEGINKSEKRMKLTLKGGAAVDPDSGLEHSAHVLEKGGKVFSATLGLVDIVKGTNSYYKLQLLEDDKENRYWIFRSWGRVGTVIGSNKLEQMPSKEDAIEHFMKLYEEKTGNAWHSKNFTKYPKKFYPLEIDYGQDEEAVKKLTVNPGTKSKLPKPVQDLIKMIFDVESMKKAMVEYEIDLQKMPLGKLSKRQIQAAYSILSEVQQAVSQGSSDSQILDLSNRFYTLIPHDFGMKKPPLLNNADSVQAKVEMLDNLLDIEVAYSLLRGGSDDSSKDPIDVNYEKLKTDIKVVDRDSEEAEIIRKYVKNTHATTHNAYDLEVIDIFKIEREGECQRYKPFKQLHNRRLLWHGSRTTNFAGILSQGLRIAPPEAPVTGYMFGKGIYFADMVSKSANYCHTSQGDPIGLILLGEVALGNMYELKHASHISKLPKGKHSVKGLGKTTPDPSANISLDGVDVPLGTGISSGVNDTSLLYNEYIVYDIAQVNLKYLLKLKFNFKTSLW

SMILES: COc1ccc(C2(CNC(=O)c3ccc(NC(=O)c4ccco4)cc3Cl)CCOCC2)cc1
- IC50: > 100 µM
